# Key:
# [1] = system: binding between 122 types of ALS-related mutant SOD1s and Derlin-1; assay: Cell-based co-immunoprecipitation with 122 types of ALS-related mutant SOD1s; parameters: species or system human; conditions: co-immunoprecipitation at cell level, FIG. 2 to FIG. 9
# Experimental: Transfection into the HEK293A cells was carried out using PEI-Max (Polyscience) at a ratio of 3 μL of PEI-Max to 1 μg of plasmid. DMEM was mixed with PEI-Max, and the mixture was then left at rest for 5 minutes. Thereafter, the reaction mixture was added to the plasmid DNA dissolved in DMEM, and the thus obtained mixture was further left at rest for 15 minutes. After seeding, the culture was carried out for 12 to 24 hours, and the resultant was then added to a culture medium of cells, in which the medium had been exchanged with DMEM supplemented only with 10% FBS.
# pcDNA3.0-Derlin-1-HA, pcDNA3.0-Flag-SOD1 G93A, and 123 types of other mutants.
# After the transfection on a 24-well plate, the cells were cultured for 12 hours or 24 hours, and the obtained cell culture was exchanged with 200 μL of medium. Thereafter, 1% DMSO or various types of compounds having each different concentration were added into the culture. Thirty-six hours or twenty-four hours later, the cells were incubated in the IP lysis buffer (300 μL/well) at 4° C. for 25 minutes, so that the cells were lysed. The cell lysate was centrifuged at 4° C. at 15000 rpm for 10 minutes, and a supernatant was then recovered. To this supernatant, Anti-Flag M2 affinity gel was added in a liquid amount of 20 μL, and they were allowed to react with each other by subjecting the obtained mixture to inversion mixing at 4° C. for 25 minutes. […]
# [2] = molecular target: T1, complex formation by Derlin-1 (Homo sapiens, UniProt Q9BUN8); assay: Inhibition of complex formation by Derlin-1; type: cell-based; conditions: under conditions for inhibiting the binding between mutant SOD1 and Derlin-1
# T1 sequence (Q9BUN8 1-251): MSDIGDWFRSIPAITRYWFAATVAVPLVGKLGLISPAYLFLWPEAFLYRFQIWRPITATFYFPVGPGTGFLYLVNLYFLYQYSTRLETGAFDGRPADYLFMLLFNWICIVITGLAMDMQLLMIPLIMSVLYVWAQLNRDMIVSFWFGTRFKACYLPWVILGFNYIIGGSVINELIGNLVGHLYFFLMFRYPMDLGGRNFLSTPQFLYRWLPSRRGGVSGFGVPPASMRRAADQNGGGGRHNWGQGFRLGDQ
# Text: (§1) In the above-described SOD1-Derlin-1-binding inhibition experiment, SOD1 G93A that is a representative mutant SOD1 associated with the onset of the pathologic conditions of ALS was used. According to previous studies, however, it has become clear that 122 types of ALS-related mutant SOD1s bind to Derlin-1 (Fujisawa et al., Ann Neurol 72, 739-749, (2012)).
# [3] = molecular target: T2, binding between ALS-related mutant SOD1 (Flag-SOD1 G93A) and Derlin-1 (Derlin-1-HA) (Homo sapiens, UniProt P00441+Q9BUN8, G94A); assay: Cell-based co-immunoprecipitation assay of mutant SOD1 (G93A)-Derlin-1 binding; parameters: key to Activity value (score): a compound exhibiting no inhibitory activity is set at 0; a compound exhibiting inhibitory activity is set at 1; a compound exhibiting significant inhibitory activity is set at 2; a compound having higher inhibitory activity than the compound of Example 1 is set at 3
# T2 construct: expressed in transfected cells; host or cells: HEK293A
# dimerization of SOD1 = dimerization of SOD1 (Homo sapiens, UniProt P00441); assay: Inhibition of dimerization of SOD1; type: cell-based; conditions: under conditions for inhibiting the binding between mutant SOD1 and Derlin-1
# Text: as §1
# T2 sequence (P00441 whole entry G94A, species assumed, one chain of several): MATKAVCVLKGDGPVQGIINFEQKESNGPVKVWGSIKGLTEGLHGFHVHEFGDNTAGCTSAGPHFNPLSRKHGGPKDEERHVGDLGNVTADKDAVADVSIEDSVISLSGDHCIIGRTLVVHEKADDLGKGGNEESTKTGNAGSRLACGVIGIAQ
# Sequence of dimerization of SOD1 (P00441 whole entry): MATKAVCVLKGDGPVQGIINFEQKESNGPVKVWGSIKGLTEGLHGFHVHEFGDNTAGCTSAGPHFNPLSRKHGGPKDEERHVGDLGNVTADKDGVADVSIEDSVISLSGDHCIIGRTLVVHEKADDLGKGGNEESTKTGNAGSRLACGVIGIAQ
smiles,measurement,setting,value
"C=CCN(C(=O)c1sc2nc(-c3cccnc3)ccc2c1N)c1ccccc1 [Example 1, N-allyl-3-amino-N-phenyl-6-(3-pyridinyl)thieno[2,3-b]pyridine-2-carboxamide]",inhibition of binding between multiple types of mutant SOD1s and Derlin-1,[1],inhibits the binding between all of the mutant SOD s and Derlin-1
same,inhibitory activity on complex formation by Derlin-1,[2],did not exhibit inhibitory activity
same,"binding between mutant SOD1 and Derlin-1 (co-precipitated Derlin-1, IB:HA band)","[3]; 5 μM, 10 μM and 20 μM added to HEK293A cell culture, FIG. 1",the binding between mutant SOD1 and Derlin-1 was inhibited
same,Activity value (score),"[3]; assay concentration 20 μM, HEK293A cells overexpressing Flag-SOD1 G93A and Derlin-1-HA",2
same,inhibitory activity on dimerization of SOD1,dimerization of SOD1,did not exhibit inhibitory activity

# Reference: patent US10689394B2, “Thieno[2,3-b]pyridine derivative, quinoline derivative, and use thereof” (The University of Tokyo, priority 2016, dated 2020)
